Test system: not listed separately
Test: Cardiovascular change (HR, BP) at equi-efficacious dose in rabbits
Assay type: in vivo
Details: Table IV, rabbit, at equi-efficacious dose
Compound COc1cc2c3cc1Oc1cc(ccc1O)C[C@@H]1c4c(cc(OC)c(O)c4Oc4ccc(cc4)C[C@@H]3N(C)CC2)CC[N+]1(C)C [d-tubocurarine] has a BP % of 4.8% and an HR % of -0.3%. With CC(=O)O[C@H]1C[C@@H]2CC[C@@H]3[C@H](CC[C@@]4(C)[C@H]3C[C@H]([N+]3(C)CCCCC3)[C@@H]4OC(C)=O)[C@@]2(C)C[C@@H]1[N+]1(C)CCCCC1 [pancuronium] the BP % was 2.7% and the HR % was 0.0%. With C[N+](C)(C)CCOC(=O)CCC(=O)OCC[N+](C)(C)C [succinylcholine] the BP % was -4.1% and the HR % was 0.2%. Work on CC(=O)O[C@H]1C[C@@H]2CC[C@@H]3[C@H](CC[C@@]4(C)[C@H]3C[C@H]([N+]3(C)CCCCC3)[C@@H]4OC(C)=O)[C@@]2(C)C[C@@H]1N1CCCCC1 [vecuronium] yielded a BP % of 1.1% and an HR % of -1.9%.

Same assay, conditions: rabbit, in vivo
With C[C@]12CC[C@@H]([N+]3(C)CCCC3)C[C@@H]1CC[C@@H]1[C@@H]2CC[C@@]2(C)[C@H]1CCC[N+]2(C)C.[Br-].[Br-] [RGH-4201] the BP % was 2.6% and the HR % was 0.3%. COc1ccc(CC2c3cc(OC)c(OC)cc3CC[N+]2(C)CCC(=O)OCCCCCOC(=O)CC[N+]2(C)CCc3cc(OC)c(OC)cc3C2Cc2ccc(OC)c(OC)c2)cc1OC (stereo not drawn) [atracurium] showed a BP % of -3.4% and an HR % of -1.0%.

Test system: paw twitch
Test: Twitch depression (muscle relaxant effect) in anesthetized rabbits; rabbit paw twitch
Assay type: in vivo, New Zealand White rabbits
Details: Oryctolagus cuniculus; Table IV, rabbit paw twitch; read-out: Equi-efficacious dose
Protocol: [The procedure below names another organism; the source lists this organism under the same test.] (§1) Mongrel dogs were injected with 50 mg/kg of pentobarbital until the onset of anesthesia as determined by the eyeblink reflex test. The injectable solutions prepared above were administered intravenously to the anesthesized mongrel dogs and measurements were made of the muscle relaxant effect including maximum twitch depression, onset, duration and recovery time in a clinically known manner. Each of the subjects were compared with a control animal receiving an injection of distilled water.
The same compound of the present invention as in
A number of compounds in accordance with the present invention were tested for their neuromuscular blockade Properties. Specifically, the acid addition salts of the compounds were dissolved in sterile water for injection.
For COc1ccc(CC2c3cc(OC)c(OC)cc3CC[N+]2(C)CCC(=O)OCCCCCOC(=O)CC[N+]2(C)CCc3cc(OC)c(OC)cc3C2Cc2ccc(OC)c(OC)c2)cc1OC (stereo not drawn) [atracurium], the ED90 was 0.046 mg/kg. CC(=O)O[C@H]1C[C@@H]2CC[C@@H]3[C@H](CC[C@@]4(C)[C@H]3C[C@H]([N+]3(C)CCCCC3)[C@@H]4OC(C)=O)[C@@]2(C)C[C@@H]1[N+]1(C)CCCCC1 [pancuronium] showed an ED90 of 0.022 mg/kg. C[N+](C)(C)CCOC(=O)CCC(=O)OCC[N+](C)(C)C [succinylcholine] showed an ED90 of 0.447 mg/kg. In the case of CC(=O)O[C@H]1C[C@@H]2CC[C@@H]3[C@H](CC[C@@]4(C)[C@H]3C[C@H]([N+]3(C)CCCCC3)[C@@H]4OC(C)=O)[C@@]2(C)C[C@@H]1N1CCCCC1 [vecuronium], the ED90 is reported as 0.019 mg/kg.

Same assay, conditions: Table IV, rabbit paw twitch
For C[C@]12CC[C@@H]([N+]3(C)CCCC3)C[C@@H]1CC[C@@H]1[C@@H]2CC[C@@]2(C)[C@H]1CCC[N+]2(C)C.[Br-].[Br-] [RGH-4201], the Equi-efficacious dose was 0.070 mg/kg. Compound COc1cc2c3cc1Oc1cc(ccc1O)C[C@@H]1c4c(cc(OC)c(O)c4Oc4ccc(cc4)C[C@@H]3N(C)CC2)CC[N+]1(C)C [d-tubocurarine] has an Equi-efficacious dose of 0.229 mg/kg.

Same assay, conditions: Table IV, rabbit, at equi-efficacious dose
In the case of C[C@]12CC[C@@H]([N+]3(C)CCCC3)C[C@@H]1CC[C@@H]1[C@@H]2CC[C@@]2(C)[C@H]1CCC[N+]2(C)C.[Br-].[Br-] [RGH-4201], the “Duration (DURAT.)” value is reported as 7.7 min, the Onset is reported as 35.4 s and the “Recovery (RECOV.)” value is reported as 6.1 min. In the case of COc1ccc(CC2c3cc(OC)c(OC)cc3CC[N+]2(C)CCC(=O)OCCCCCOC(=O)CC[N+]2(C)CCc3cc(OC)c(OC)cc3C2Cc2ccc(OC)c(OC)c2)cc1OC (stereo not drawn) [atracurium], the “Duration (DURAT.)” value is reported as 14.3 min, the Onset is reported as 126.9 s and the “Recovery (RECOV.)” value is reported as 12.2 min. For COc1cc2c3cc1Oc1cc(ccc1O)C[C@@H]1c4c(cc(OC)c(O)c4Oc4ccc(cc4)C[C@@H]3N(C)CC2)CC[N+]1(C)C [d-tubocurarine], the “Duration (DURAT.)” value was 37.3 min, the Onset was 85.0 s and the “Recovery (RECOV.)” value was 34.8 min. In the case of CC(=O)O[C@H]1C[C@@H]2CC[C@@H]3[C@H](CC[C@@]4(C)[C@H]3C[C@H]([N+]3(C)CCCCC3)[C@@H]4OC(C)=O)[C@@]2(C)C[C@@H]1[N+]1(C)CCCCC1 [pancuronium], the “Duration (DURAT.)” value is reported as 32.5 min, the Onset is reported as 147.5 s and the “Recovery (RECOV.)” value is reported as 17.4 min. For C[N+](C)(C)CCOC(=O)CCC(=O)OCC[N+](C)(C)C [succinylcholine], the Onset was 39.4 s. With CC(=O)O[C@H]1C[C@@H]2CC[C@@H]3[C@H](CC[C@@]4(C)[C@H]3C[C@H]([N+]3(C)CCCCC3)[C@@H]4OC(C)=O)[C@@]2(C)C[C@@H]1N1CCCCC1 [vecuronium] the “Duration (DURAT.)” value was 16.8 min, the Onset was 97.3 s and the “Recovery (RECOV.)” value was 9.6 min.

Same assay, conditions: Table IV, rabbit, at equi-efficacious dose; depolarizer, based on twitch recovery not to-f
In the case of C[N+](C)(C)CCOC(=O)CCC(=O)OCC[N+](C)(C)C [succinylcholine], the “Duration (DURAT.)” value is reported as 18.6 min and the “Recovery (RECOV.)” value is reported as 18.6 min.

Test system: not listed separately
Test: Cardiovascular change (HR, BP) at equi-efficacious dose in dogs
Assay type: in vivo
Details: Table V, dog, at equi-efficacious dose
With COc1cc2c3cc1Oc1cc(ccc1O)C[C@@H]1c4c(cc(OC)c(O)c4Oc4ccc(cc4)C[C@@H]3N(C)CC2)CC[N+]1(C)C [d-tubocurarine] the BP % was -25.8% and the HR % was 8.7%. Work on CC(=O)O[C@H]1C[C@@H]2CC[C@@H]3[C@H](CC[C@@]4(C)[C@H]3C[C@H]([N+]3(C)CCCCC3)[C@@H]4OC(C)=O)[C@@]2(C)C[C@@H]1[N+]1(C)CCCCC1 [pancuronium] yielded a BP % of -1.8% and an HR % of 0.2%. C[N+](C)(C)CCOC(=O)CCC(=O)OCC[N+](C)(C)C [succinylcholine] showed a BP % of 25.7% and an HR % of 34.9%. Work on CC(=O)O[C@H]1C[C@@H]2CC[C@@H]3[C@H](CC[C@@]4(C)[C@H]3C[C@H]([N+]3(C)CCCCC3)[C@@H]4OC(C)=O)[C@@]2(C)C[C@@H]1N1CCCCC1 [vecuronium] yielded a BP % of 2.3% and an HR % of 3.5%.

Same assay, conditions: dog, in vivo
With C[C@]12CC[C@@H]([N+]3(C)CCCC3)C[C@@H]1CC[C@@H]1[C@@H]2CC[C@@]2(C)[C@H]1CCC[N+]2(C)C.[Br-].[Br-] [RGH-4201] the BP % was 1.4% and the HR % was 11.3%. With COc1ccc(CC2c3cc(OC)c(OC)cc3CC[N+]2(C)CCC(=O)OCCCCCOC(=O)CC[N+]2(C)CCc3cc(OC)c(OC)cc3C2Cc2ccc(OC)c(OC)c2)cc1OC (stereo not drawn) [atracurium] the BP % was 0.3% and the HR % was 3.3%.

Test system: neuromuscular blockade
Test: not given
Details: background, in words; cited from earlier work
For COc1cc2c3cc1Oc1cc(ccc1O)C[C@@H]1c4c(cc(OC)c(O)c4Oc4ccc(cc4)C[C@@H]3N(C)CC2)CC[N+]1(C)C [d-tubocurarine], the “duration of paralysis and recovery” value is listed as “maintain paralysis for an undesirably long time and the recovery period is slow”. For CC(=O)O[C@H]1C[C@@H]2CC[C@@H]3[C@H](CC[C@@]4(C)[C@H]3C[C@H]([N+]3(C)CCCCC3)[C@@H]4OC(C)=O)[C@@]2(C)C[C@@H]1[N+]1(C)CCCCC1 [pancuronium], the “duration of paralysis and recovery” value is given as “maintain paralysis for an undesirably long time and the recovery period is slow”. In the case of C[N+](C)(C)CCOC(=O)CCC(=O)OCC[N+](C)(C)C [succinylcholine], the “reversibility by anticholinesterase drugs” value is listed as “not easily reversed by anticholinesterase drugs”.

Test system: paw twitch
Test: Twitch depression (muscle relaxant effect) in anesthetized dogs; dog paw twitch
Assay type: in vivo, mongrel dogs
Details: Canis lupus familiaris, iv; Table V, dog paw twitch; read-out: Equi-efficacious dose
Protocol: as §1
Work on COc1ccc(CC2c3cc(OC)c(OC)cc3CC[N+]2(C)CCC(=O)OCCCCCOC(=O)CC[N+]2(C)CCc3cc(OC)c(OC)cc3C2Cc2ccc(OC)c(OC)c2)cc1OC (stereo not drawn) [atracurium] yielded an ED90 of 0.086 mg/kg. Compound CC(=O)O[C@H]1C[C@@H]2CC[C@@H]3[C@H](CC[C@@]4(C)[C@H]3C[C@H]([N+]3(C)CCCCC3)[C@@H]4OC(C)=O)[C@@]2(C)C[C@@H]1[N+]1(C)CCCCC1 [pancuronium] has an ED90 of 0.013 mg/kg. With C[N+](C)(C)CCOC(=O)CCC(=O)OCC[N+](C)(C)C [succinylcholine] the ED90 was 0.043 mg/kg. In the case of CC(=O)O[C@H]1C[C@@H]2CC[C@@H]3[C@H](CC[C@@]4(C)[C@H]3C[C@H]([N+]3(C)CCCCC3)[C@@H]4OC(C)=O)[C@@]2(C)C[C@@H]1N1CCCCC1 [vecuronium], the ED90 is reported as 0.019 mg/kg.

Same assay, conditions: Table V, dog paw twitch
For C[C@]12CC[C@@H]([N+]3(C)CCCC3)C[C@@H]1CC[C@@H]1[C@@H]2CC[C@@]2(C)[C@H]1CCC[N+]2(C)C.[Br-].[Br-] [RGH-4201], the Equi-efficacious dose was 0.077 mg/kg. Compound COc1cc2c3cc1Oc1cc(ccc1O)C[C@@H]1c4c(cc(OC)c(O)c4Oc4ccc(cc4)C[C@@H]3N(C)CC2)CC[N+]1(C)C [d-tubocurarine] has an Equi-efficacious dose of 0.254 mg/kg.

Same assay, conditions: Table V, dog, at equi-efficacious dose
In the case of C[C@]12CC[C@@H]([N+]3(C)CCCC3)C[C@@H]1CC[C@@H]1[C@@H]2CC[C@@]2(C)[C@H]1CCC[N+]2(C)C.[Br-].[Br-] [RGH-4201], the “Duration (DURAT.)” value is reported as 28.3 min, the Onset is reported as 123.6 s and the “Recovery (RECOV.)” value is reported as 22.0 min. With COc1ccc(CC2c3cc(OC)c(OC)cc3CC[N+]2(C)CCC(=O)OCCCCCOC(=O)CC[N+]2(C)CCc3cc(OC)c(OC)cc3C2Cc2ccc(OC)c(OC)c2)cc1OC (stereo not drawn) [atracurium] the “Duration (DURAT.)” value was 27.9 min, the Onset was 159.4 s and the “Recovery (RECOV.)” value was 20.4 min. For COc1cc2c3cc1Oc1cc(ccc1O)C[C@@H]1c4c(cc(OC)c(O)c4Oc4ccc(cc4)C[C@@H]3N(C)CC2)CC[N+]1(C)C [d-tubocurarine], the “Duration (DURAT.)” value was 60.0 min, the Onset was 150.8 s and the “Recovery (RECOV.)” value was 55.3 min. With CC(=O)O[C@H]1C[C@@H]2CC[C@@H]3[C@H](CC[C@@]4(C)[C@H]3C[C@H]([N+]3(C)CCCCC3)[C@@H]4OC(C)=O)[C@@]2(C)C[C@@H]1[N+]1(C)CCCCC1 [pancuronium] the “Duration (DURAT.)” value was 45.7 min, the Onset was 169.0 s and the “Recovery (RECOV.)” value was 35.6 min. Compound C[N+](C)(C)CCOC(=O)CCC(=O)OCC[N+](C)(C)C [succinylcholine] has an Onset of 98.9 s. In the case of CC(=O)O[C@H]1C[C@@H]2CC[C@@H]3[C@H](CC[C@@]4(C)[C@H]3C[C@H]([N+]3(C)CCCCC3)[C@@H]4OC(C)=O)[C@@]2(C)C[C@@H]1N1CCCCC1 [vecuronium], the “Duration (DURAT.)” value is reported as 26.6 min, the Onset is reported as 171.0 s and the “Recovery (RECOV.)” value is reported as 21.8 min.

Same assay, conditions: Table V, dog, at equi-efficacious dose; depolarizer, based on twitch recovery not to-f
For C[N+](C)(C)CCOC(=O)CCC(=O)OCC[N+](C)(C)C [succinylcholine], the “Duration (DURAT.)” value was 8.8 min and the “Recovery (RECOV.)” value was 5.4 min.

— patent publication US4863918A, “Enamine quaternary compounds, methods of making and their use as muscle relaxants” (BOC, Inc., priority 1988, dated 1989)
